In brackets after ≈: the same amount, converted by molar mass.
Assays:
Escherichia coli [1] = assay: Antibacterial activity expressed as MIC value was determined on Escherichia coli A-20895; assay type: functional
Escherichia coli [2] = assay: Antibacterial activity expressed as MIC value was determined on Escherichia coli A-22356 organism; assay type: functional
Pseudomonas aeruginosa [3] = assay: Antibacterial activity expressed as MIC value was determined on Pseudomonas aeruginosa A-20601 organism; assay type: functional
Staphylococcus aureus [4] = assay: Antibacterial activity expressed as MIC value was determined on Staphylococcus aureus A-22058 organism; assay type: functional
Providencia stuartii [5] = assay: Antibacterial activity expressed as MIC value was determined on Proteus stuartii A-21210 organism; assay type: functional
Escherichia coli [6] = assay: Antibacterial activity expressed as MIC value was determined on Escherichia coli A-9632 organism; assay type: functional
Enterobacter cloacae [7] = assay: Antibacterial activity expressed as MIC value was determined on Enterobacter cloacae A-20364 organism; assay type: functional
Enterobacter cloacae [8] = assay: Antibacterial activity expressed as MIC value was determined on Enterobacter cloacae A-21006 organism; assay type: functional
Pseudomonas aeruginosa [9] = assay: Antibacterial activity expressed as MIC value was determined on Pseudomonas aeruginosa A-21508 organism; assay type: functional
Enterobacter cloacae [10] = assay: Antibacterial activity expressed as MIC value was determined on Enterobacter cloacae A-21136 organism; assay type: functional
Pseudomonas aeruginosa [11] = assay: Antibacterial activity expressed as MIC value was determined on Pseudomonas aeruginosa A-20653 organism; assay type: functional
Escherichia coli [12] = assay: Antibacterial activity expressed as MIC value was determined on Escherichia coli A-22045 organism; assay type: functional
Proteus mirabilis = assay: Antibacterial activity expressed as MIC value was determined on Proteus mirabilis A-9900 organism; assay type: functional
Staphylococcus aureus [13] = assay: Antibacterial activity expressed as MIC value was determined on Staphylococcus aureus A-22231 organism; assay type: functional
Staphylococcus aureus [14] = assay: Antibacterial activity expressed as MIC value was determined on Staphylococcus aureus A-20240 organism; assay type: functional
Pseudomonas aeruginosa [15] = assay: Antibacterial activity expressed as MIC value was determined on Pseudomonas aeruginosa A-21509 organism; assay type: functional
Klebsiella pneumoniae = assay: Antibacterial activity expressed as MIC value was determined on Klebsiella pneumonia A-20468 organism; assay type: functional
Staphylococcus aureus [16] = assay: Antibacterial activity expressed as MIC value was determined on Staphylococcus aureus A-22210 organism; assay type: functional
Enterobacter cloacae [17] = assay: Antibacterial activity expressed as MIC value was determined on Enterobacter cloacae A-9656 organism; assay type: functional
Providencia stuartii [18] = assay: Antibacterial activity expressed as MIC value was determined on Proteus stuartii A-20894 organism; assay type: functional
Escherichia coli [19] = assay: Antibacterial activity expressed as MIC value was determined on Escherichia coli A-20665 organism; assay type: functional
Pseudomonas aeruginosa [20] = assay: Antibacterial activity expressed as MIC value was determined on Pseudomonas aeruginosa A-9834A organism; assay type: functional
Providencia rettgeri [21] = assay: ntibacterial activity expressed as MIC value was determined on Proteus rettgeri A-21207 organism; assay type: functional
Staphylococcus aureus [22] = assay: Antibacterial activity expressed as MIC value was determined on Staphylococcus aureus A-9537 organism; assay type: functional
Escherichia coli [23] = assay: Antibacterial activity expressed as MIC value was determined on Escherichia coli A-20683 organism; assay type: functional
Pseudomonas aeruginosa [24] = assay: Antibacterial activity expressed as MIC value was determined on Pseudomonas aeruginosa A-20741 organism; assay type: functional
Providencia rettgeri [25] = assay: (§1) Antibacterial activity expressed as MIC value was determined on Proteus rettgeri A-9637 organism; assay type: functional
Escherichia coli [26] = assay: Antibacterial activity expressed as MIC value was determined on Escherichia coli A-20697 organism; assay type: functional
Pseudomonas aeruginosa [27] = assay: Antibacterial activity expressed as MIC value was determined on Pseudomonas aeruginosa A-21294 organism; assay type: functional
Pseudomonas aeruginosa [28] = assay: Antibacterial activity expressed as MIC value was determined on Pseudomonas aeruginosa A-22233 organism; assay type: functional
Pseudomonas aeruginosa [29] = assay: Antibacterial activity expressed as MIC value was determined on Pseudomonas aeruginosa A-20897 organism; assay type: functional
Serratia marcescens = assay: Antibacterial activity expressed as MIC value was determined on Serratia marcescens A-20019 organism; assay type: functional
Escherichia coli [30] = assay: Antibacterial activity expressed as MIC value was determined on Escherichia coli A-21218 organism; assay type: functional
Staphylococcus aureus [31] = assay: Antibacterial activity expressed as MIC value was determined on Staphylococcus aureus A-21978 organism; assay type: functional
Pseudomonas aeruginosa [32] = assay: Antibacterial activity expressed as MIC value was determined on Pseudomonas aeruginosa A-20717 organism; assay type: functional
Escherichia coli [33] = assay: Antibacterial activity expressed as MIC value was determined on Escherichia coli A-20732 organism; assay type: functional
Escherichia coli [34] = assay: Antibacterial activity expressed as MIC value was determined on Escherichia coli A-20895 organism; assay type: functional
Pseudomonas aeruginosa [35] = assay: Antibacterial activity expressed as MIC value was determined on Pseudomonas aeruginosa A-9834A organismA-; assay type: functional, organism-based
Providencia rettgeri [36] = assay: Antibacterial activity expressed as MIC value was determined on Proteus rettgeri A-21207 organism; assay type: functional
Providencia rettgeri [37] = assay: as §1; assay type: functional; remark: listed apart in the source
Staphylococcus aureus [38] = assay: Antibacterial activity expressed as MIC value was determined on; assay type: functional, organism-based
Pseudomonas aeruginosa [39] = assay: Antibacterial activity expressed as MIC value was determined on Pseudomonas aeruginosa A-20601; assay type: functional, organism-based

Compound | MIC (Providencia stuartii [5]) [µg/mL] | MIC (Escherichia coli [6]) [µg/mL] | MIC (Escherichia coli [12]) [µg/mL] | MIC (Proteus mirabilis) [µg/mL] | MIC (Staphylococcus aureus [13]) [µg/mL] | MIC (Staphylococcus aureus [14]) [µg/mL] | MIC (Pseudomonas aeruginosa [15]) [µg/mL] | MIC (Klebsiella pneumoniae) [µg/mL] | MIC (Staphylococcus aureus [16]) [µg/mL] | MIC (Providencia stuartii [18]) [µg/mL] | MIC (Staphylococcus aureus [22]) [µg/mL] | MIC (Escherichia coli [23]) [µg/mL] | MIC (Pseudomonas aeruginosa [24]) [µg/mL] | MIC (Escherichia coli [26]) [µg/mL] | MIC (Pseudomonas aeruginosa [27]) [µg/mL] | MIC (Pseudomonas aeruginosa [29]) [µg/mL] | MIC (Serratia marcescens) [µg/mL] | MIC (Escherichia coli [30]) [µg/mL] | MIC (Staphylococcus aureus [31]) [µg/mL] | MIC (Pseudomonas aeruginosa [32]) [µg/mL] | further results
CC1(C)S[C@@H]2[C@H](NC(=O)C(C(=O)O)c3ccccc3)C(=O)N2[C@H]1C(=O)O (stereo not given in full) [CARBENICILLIN] | 1 (≈ 2.64 µM) | 8 (≈ 21.1 µM) | 32 (≈ 84.6 µM) | 0.5 (≈ 1.32 µM) | 2 (≈ 5.29 µM) | 8 (≈ 21.1 µM) | > 125 | > 125 | > 125 | 8 (≈ 21.1 µM) | 1 (≈ 2.64 µM) | > 125 | 125 (≈ 330 µM) | 32 (≈ 84.6 µM) | > 125 | > 125 | 16 (≈ 42.3 µM) | 32 (≈ 84.6 µM) | > 125 | > 125 | MIC (Escherichia coli [1]): 63 µg/mL (≈ 166 µM); MIC (Escherichia coli [2]): 4 µg/mL (≈ 10.6 µM); MIC (Pseudomonas aeruginosa [3]): 125 µg/mL (≈ 330 µM); MIC (Staphylococcus aureus [4]): 4 µg/mL (≈ 10.6 µM); MIC (Enterobacter cloacae [7]): > 125 µg/mL; MIC (Enterobacter cloacae [8]): > 125 µg/mL; MIC (Pseudomonas aeruginosa [9]): > 125 µg/mL; MIC (Enterobacter cloacae [10]): > 125 µg/mL; MIC (Pseudomonas aeruginosa [11]): 125 µg/mL (≈ 330 µM); MIC (Enterobacter cloacae [17]): 32 µg/mL (≈ 84.6 µM); MIC (Escherichia coli [19]): 8 µg/mL (≈ 21.1 µM); MIC (Pseudomonas aeruginosa [20]): 32 µg/mL (≈ 84.6 µM); MIC (Providencia rettgeri [21]): 16 µg/mL (≈ 42.3 µM); MIC (Providencia rettgeri [25]): 0.5 µg/mL (≈ 1.32 µM); MIC (Pseudomonas aeruginosa [28]): > 125 µg/mL; MIC (Escherichia coli [33]): > 125 µg/mL
NC[C@H]1O[C@H](O[C@H]2[C@H](O)[C@@H](O[C@H]3O[C@H](CO)[C@@H](O)[C@H](N)[C@H]3O)[C@H](N)C[C@@H]2N)[C@H](O)[C@@H](O)[C@@H]1O [KANAMYCIN] | 0.5 (≈ 1.03 µM) | 2 (≈ 4.13 µM) | 4 (≈ 8.26 µM) | 2 (≈ 4.13 µM) | 8 (≈ 16.5 µM) | > 125 | > 125 | 0.5 (≈ 1.03 µM) | > 125 | 4 (≈ 8.26 µM) | 0.05 (≈ 0.103 µM) | > 125 | > 125 | 2 (≈ 4.13 µM) | 63 (≈ 130 µM) | > 125 | 1 (≈ 2.06 µM) | 32 (≈ 66 µM) | > 125 | 32 (≈ 66 µM) | MIC (Escherichia coli [34]): 2 µg/mL (≈ 4.13 µM); MIC (Escherichia coli [2]): 2 µg/mL (≈ 4.13 µM); MIC (Pseudomonas aeruginosa [3]): 32 µg/mL (≈ 66 µM); MIC (Staphylococcus aureus [4]): 125 µg/mL (≈ 258 µM); MIC (Enterobacter cloacae [7]): > 125 µg/mL; MIC (Enterobacter cloacae [8]): > 125 µg/mL; MIC (Pseudomonas aeruginosa [9]): > 125 µg/mL; MIC (Enterobacter cloacae [10]): 32 µg/mL (≈ 66 µM); MIC (Pseudomonas aeruginosa [11]): > 125 µg/mL; MIC (Enterobacter cloacae [17]): 1 µg/mL (≈ 2.06 µM); MIC (Escherichia coli [19]): > 125 µg/mL; MIC (Pseudomonas aeruginosa [20]): 63 µg/mL (≈ 130 µM); MIC (Providencia rettgeri [21]): 2 µg/mL (≈ 4.13 µM); MIC (Providencia rettgeri [25]): 0.5 µg/mL (≈ 1.03 µM); MIC (Pseudomonas aeruginosa [28]): > 125 µg/mL; MIC (Escherichia coli [33]): 63 µg/mL (≈ 130 µM)
NC[C@H]1O[C@H](O[C@H]2[C@H](O)[C@@H](O[C@H]3O[C@H](CO)[C@@H](O)[C@H](N)[C@H]3O)[C@H](N)C[C@@H]2N)[C@H](N)C[C@@H]1O [TOBRAMYCIN] | 2 (≈ 4.28 µM) | 0.25 (≈ 0.535 µM) | 4 (≈ 8.56 µM) | 0.5 (≈ 1.07 µM) | 16 (≈ 34.2 µM) | 0.13 (≈ 0.278 µM) | 4 (≈ 8.56 µM) | 0.06 (≈ 0.128 µM) | 8 (≈ 17.1 µM) | 16 (≈ 34.2 µM) | 0.03 (≈ 0.0642 µM) | 16 (≈ 34.2 µM) | > 125 | 0.13 (≈ 0.278 µM) | 16 (≈ 34.2 µM) | 125 (≈ 267 µM) | 2 (≈ 4.28 µM) | 8 (≈ 17.1 µM) | 32 (≈ 68.4 µM) | 0.13 (≈ 0.278 µM) | MIC (Escherichia coli [34]): 0.5 µg/mL (≈ 1.07 µM); MIC (Escherichia coli [2]): 0.25 µg/mL (≈ 0.535 µM); MIC (Pseudomonas aeruginosa [3]): 0.13 µg/mL (≈ 0.278 µM); MIC (Staphylococcus aureus [4]): 32 µg/mL (≈ 68.4 µM); MIC (Enterobacter cloacae [7]): 0.5 µg/mL (≈ 1.07 µM); MIC (Enterobacter cloacae [8]): 1 µg/mL (≈ 2.14 µM); MIC (Pseudomonas aeruginosa [9]): 0.06 µg/mL (≈ 0.128 µM); MIC (Enterobacter cloacae [10]): 16 µg/mL (≈ 34.2 µM); MIC (Pseudomonas aeruginosa [11]): 0.13 µg/mL (≈ 0.278 µM); MIC (Enterobacter cloacae [17]): 0.25 µg/mL (≈ 0.535 µM); MIC (Escherichia coli [19]): 1 µg/mL (≈ 2.14 µM); MIC (Pseudomonas aeruginosa [20]): 0.13 µg/mL (≈ 0.278 µM); MIC (Providencia rettgeri [21]): 32 µg/mL (≈ 68.4 µM); MIC (Providencia rettgeri [25]): 0.13 µg/mL (≈ 0.278 µM); MIC (Pseudomonas aeruginosa [28]): 125 µg/mL (≈ 267 µM); MIC (Escherichia coli [33]): 8 µg/mL (≈ 17.1 µM)
GENTAMICIN | 1 | 0.25 | 63 | 1 | 0.13 | 0.13 | 16 | 0.25 | 32 | 125 | 0.06 | 32 | > 125 | 0.25 | 1 | > 125 | 1 | 0.25 | 0.25 | 4 | MIC (Escherichia coli [34]): 32 µg/mL; MIC (Pseudomonas aeruginosa [35]): 0.25 µg/mL; MIC (Providencia rettgeri [36]): 8 µg/mL; MIC (Providencia rettgeri [37]): 0.06 µg/mL; MIC (Staphylococcus aureus [38]): 0.13 µg/mL; MIC (Pseudomonas aeruginosa [39]): > 125 µg/mL; MIC (Escherichia coli [33]): 16 µg/mL

— ChEMBL document CHEMBL1123524, “Aminoglycoside antibiotics. 6. Chemical reactions of aminoglycosides with disodium carbenicillin” (1986)
